Consider four compounds from patent publication EP4480494A1, “COMPOSITION FOR USE IN TREATMENT OF CANCER, INFLAMMATORY DISEASES, OR OBESITY, AND USE THEREOF” (National University Corporation Tokyo Medical and Dental …, priority 2022, dated 2023).

pEC50, pIC50: −log10 of the molar value.

The test system of experiment [1] is ZCCHC24. Kind of experiment: Compound screening using HiBiT tag knock-in cells (ZCCHC24 expression reporter). Format: cell-based, human. Particulars: LOPAC compounds at 1 µM for 24 hours; HiBiT tag-inserted MDAMB231 reporter cells. As to the method: HiBiT tagged-MDAMB231 cells with were produced using the procedure below. First, crRNA (*14 (SEQ ID NO: 14) in Table 1) (IDT) was resuspended in the Nuclease-Free Duplex buffer (IDT) to a final concentration of 100 µM, and incubated at 95°C for 5 minutes together with the same amount of tracrRNA (IDT). The oligo complex was then slowly cooled down to room temperature and incubated with ALT-R Cas9 Nuclease V3 (61 µM) (Integrated DNA Technologies, IA, USA) for 20 minutes at room temperature to form the Cas9 complex. Next, a single-stranded DNA oligo (*15 (SEQ ID NO: 15) in Table 1) (comprising the HiBiT sequence and a sequence complementary to the sequence of the C-terminal region of ZCCHC24) and Cas9 complex were co-transfected into MDAMB231 cells by an electroporation method using the NEPA21 super electroporator ([…]). After single cell cloning, cells inserted with the HiBiT tag were collected.
The compound screening procedure is as follows. HiBiT tag-inserted cells were plated at 1 × 10^4 cells in a 96-well plate, cultured for 24 hours, and then reacted with a low molecular compound library (LOPAC; Sigma Aldrich) at 1 µM (final concentration) for 24 hours. After the culture medium was discarded, cells were incubated with 12.5 µL PBS, 12.5 µL lysis buffer (Promega), 0.5 µL substrate (Promega), and 0.25 µL LgBiT (Promega) for 10 minutes at room temperature in the dark. The luminescence intensity was measured using ARVO X3 (Perkin Elmer).
As mentioned above, ZCCHC24 is strongly expressed in cancer stem cell-like cells, and maintains the expression of genes important for maintaining cancer stemness by directly binding to the mRNA of these genes. Therefore, in order to clarify the expression induction mechanism of ZCCHC24, labeled reporter cells were created by inserting a HiBiT tag into the C terminus of ZCCHC24, 1280 types of compounds in LOPAC (Sigma Aldrich) were administered to these reporter cells at a concentration of 1 µM for 24 hours, and compound screening was performed (Figure 17A). […]
(In general: With HiBiT, luminescence reflects the tagged protein that the partner subunit can reach.)

In another experiment the test system is ZEB1. Kind of experiment: qPCR analysis on JQ1-treated MDAMB231. Particulars: MDAMB231, 100 nM JQ1, 24 hours. Format: cell-based, human. (In qPCR the cycle at which signal appears reflects the starting amount.)
Experiment [2] relates to ZCCHC24. The experiment in a line: cells. Format: cell-based. The note with it: Homo sapiens; HiBiT tag-inserted cells, 24 hours; read-out: EC50 concentration for the maximal increase in the ZCCHC24 expression. On the procedure:
1 × 10^4 HiBiT tag-inserted cells were seeded in a 96-well plate. […] After 24 hours, the medium was discarded, and 12.5 µL PBS, 12.5 µL Lytic Buffer from the HiBiT kit (Promega), 0.5 µL substrate, and 0.25 µL LgBiT were added. After 10 minutes of reaction at room temperature, luminescence was measured using ARVO X3 (Perkin Elmer).

The next experiment deals with MDAMB231. The experiment in a line: cells. Format: cell-based. Particulars: Homo sapiens, MDA-MB-231; MDAMB231, 48 hours, Cell Titer Glo; read-out: IC50 for maximal cell survival inhibition. On the procedure: 2 × 10^3 HiBiT tag-inserted cells were seeded in a 96-well plate. […] After 48 hours, 20 µL of Cell Titer Glo (Promega) was added. After 30 minutes of reaction at 37°C, the […] was measured using ARVO X3 (Perkin Elmer).
On the technique in general: ATP-based viability assays read luminescence as a measure of living cells.

The next experiment has as its system MDAMB231 cells. Format: cell-based, human. The note with it: 100 nM JQ1, 1 µM PD407824 or both, 24 hours, CD44/NRP1 staining. On the procedure:
2 × 10^5 MDAMB231 cells were seeded in a 6-well plate. […] Twenty-four hours later, cells were collected, stained with CD44-PE (IM7, Biolegend) and NRP1-APC (FAB3870A, R&D), and subjected to FACS analysis using FACS Calibur (BD).

In the case of `CC(=O)[C@]1(O)Cc2c(O)c3c(c(O)c2[C@@H](O[C@H]2C[C@H](N)[C@H](O)[C@H](C)O2)C1)C(=O)c1ccccc1C3=O` [idarubicin], in the experiment on ZCCHC24 [1], the “Z score (ZCCHC24 expression)” value is “up-regulators (compounds with Z score > 3.0 above were defined as up-regulators)”.
On the same count and under the same terms, then `CC[C@@]1(O)C(=O)OCc2c1cc1n(c2=O)Cc2cc3ccccc3nc2-1` [camptothecin], with “up-regulators (compounds with Z score > 3.0 above were defined as up-regulators)”.
Take `Cc1sc2c(c1C)C(c1ccc(Cl)cc1)=NC(CC(=O)OC(C)(C)C)c1nnc(C)n1-2` (stereo not shown) [JQ1]: the “expression of ZEB1” value in the experiment with ZEB1 is “dramatically increased”. Further, in the experiment on ZCCHC24 [2], the pEC50 was around 7.30. Moreover, the pIC50 (in general, the IC50 on a negative log10 scale, so that one unit is a factor of ten) with MDAMB231 was around 7.00. For the same compound, in the experiment on MDAMB231 cells, the “cancer stem cell-like population” value is listed as “no decrease”.
Consider `COc1cc2c[n+](C)c3c4cc5c(cc4ccc3c2cc1OC)OCO5` [nitidine], for which, in the experiment with ZCCHC24 [1], the “Z score (ZCCHC24 expression)” value is “up-regulators (compounds with Z score > 3.0 above were defined as up-regulators)”.
